Measurements reported in US12655116B2, “Substituted isophthalic acid diamides” (Bayer Aktiengesellschaft, priority 2020, dated 2026).

Legend:
[1] = tested on: AMARE; experiment: Post-emergence herbicidal action against AMARE; format: in vivo, Amaranthus retroflexus; settings: 20 g/ha, visual assessment about 3 weeks after treatment, 100% = plants have died, 0% = like control plants
Summary of the method: (§1)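 Sandy loam, greenhouse; treatment 2–3 weeks after sowing, one-leaf stage. Aqueous suspension or emulsion from WP/EC sprayed on foliage (600–800 l/ha, 0.2% wetting agent). Readout: visual % action, ~3 weeks.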

[2] = tested on: VERPE; experiment: Pre-emergence herbicidal action against VERPE; format: in vivo, Veronica persica; settings: dosage 80 g/ha
Summary of the method: (§2)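 Seeds sown in sandy loam, soil-covered; compound sprayed on soil surface pre-emergence. Application: WP/EC, 600–800 l/ha, 0.2% wetting agent. Readout: visual % damage at 3 weeks.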

[3] = tested on: AVEFA; experiment: Pre-emergence herbicidal action against AVEFA; format: in vivo, Avena fatua; settings: 80 g/ha, pre-emergence
Summary of the method: as §2

[4] = tested on: ABUTH; experiment: Pre-emergence herbicidal action against ABUTH; format: in vivo, Abutilon theophrasti; settings: for Pre-emergence action against ABUTH (herbicidal activity): 80 g/ha, scored visually after 3 weeks vs untreated controls (100% = plants have died, 0% = like control plants); for Pre-emergence action against ABUTH (herbicidal activity in percent): dosage 20 g/ha, scored visually after 3 weeks vs untreated controls, 100% = plants have died, 0% = like control plants
Summary of the method: as §2

[5] = tested on: PHBPU; experiment: Pre-emergence herbicidal action against PHBPU; format: in vivo, Pharbitis purpurea; settings: dosage 80 g/ha
Summary of the method: as §2

[6] = tested on: AMARE; experiment: Pre-emergence herbicidal action against AMARE; format: in vivo, Amaranthus retroflexus
Summary of the method: as §2

[7] = tested on: VIOTR; experiment: Pre-emergence herbicidal action against VIOTR; format: in vivo, Viola tricolor
Summary of the method: as §2

[8] = tested on: VERPE; experiment: Post-emergence herbicidal action against VERPE; format: in vivo, Veronica persica; settings: 20 g/ha
Summary of the method: as §1

[9] = tested on: DIGSA; experiment: Pre-emergence herbicidal action against DIGSA; format: in vivo, Digitaria sanguinalis
Summary of the method: as §2

[10] = tested on: DIGSA; experiment: Post-emergence herbicidal action against DIGSA; format: in vivo, Digitaria sanguinalis; settings: for Post-emergence action against DIGSA: 20 g/ha
Summary of the method: as §1

[11] = tested on: ALOMY; experiment: Post-emergence herbicidal action against ALOMY; format: in vivo, Alopecurus myosuroides; settings: dosage 20 g/ha, visual assessment about 3 weeks after treatment vs untreated controls
Summary of the method: as §1

[12] = tested on: ALOMY; experiment: Pre-emergence herbicidal action against ALOMY; format: in vivo, Alopecurus myosuroides; settings: 80 g/ha, pre-emergence, scored visually after 3 weeks vs untreated controls (100% = plants have died, 0% = like control plants)
Summary of the method: as §2

[13] = tested on: ECHCG; experiment: Pre-emergence herbicidal action against ECHCG; format: in vivo, Echinochloa crus-galli
Summary of the method: as §2

[14] = tested on: ECHCG; experiment: Post-emergence herbicidal action against ECHCG; format: in vivo, Echinochloa crus-galli
Summary of the method: as §1

[15] = tested on: PHBPU; experiment: Post-emergence herbicidal action against PHBPU; format: in vivo, Pharbitis purpurea
Summary of the method: as §1

[16] = tested on: VIOTR; experiment: Post-emergence herbicidal action against VIOTR; format: in vivo, Viola tricolor; settings: 20 g/ha
Summary of the method: as §1

[17] = tested on: MATIN; experiment: Pre-emergence herbicidal action against MATIN; format: in vivo, Matricaria inodora
Summary of the method: as §2

[18] = tested on: SETVI; experiment: Pre-emergence herbicidal action against SETVI; format: in vivo, Setaria viridis
Summary of the method: as §2

[19] = tested on: POLCO; experiment: Pre-emergence herbicidal action against POLCO; format: in vivo, Polygonum convolvulus; settings: dosage 80 g/ha
Text: Seeds of monocotyledonous and dicotyledonous weed plants and crop plants are laid out in sandy loam soil in wood-fiber pots and covered with soil. The compounds of the invention, formulated in the form of wettable powders (WP) or as emulsion concentrates (EC), are then applied to the surface of the covering soil in the form of an aqueous suspension or emulsion at a water application rate equivalent to 600 to 800 l/ha, with addition of 0.2% wetting agent. After the treatment, the pots are placed in a greenhouse and kept under good growth conditions for the trial plants. The damage to the test plants is scored visually after a test period of 3 weeks by comparison with untreated controls (herbicidal activity in percent (%): 100% activity=the plants have died, 0% activity=like control plants). […] The tables below illustrate, in an illustrative manner, the post-emergence herbicidal action of the compounds of the invention, the herbicidal activity being stated in percent.

[20] = 20 g/ha, scored visually after 3 weeks vs untreated controls, 100% = plants have died, 0% = like control plants
[21] = 80 g/ha, scored visually after 3 weeks vs untreated controls (100% = plants have died, 0% = like control plants)

| Structure (SMILES) | Post-emergence action at 20 g/ha against AMARE in % [1] | Pre-emergence action against VERPE in % [2] | Pre-emergence action against AVEFA in % [3] | Pre-emergence action against ABUTH (herbicidal activity) [4] | Pre-emergence action against ABUTH (herbicidal activity in percent) [4] | Pre-emergence action against PHBPU in % [5] | Pre-emergence action against AMARE in % [6, 20] | Pre-emergence action against AMARE in % [6, 21] | Pre-emergence action against VIOTR in % ([7]; dosage 20 g/ha) | Pre-emergence action against VIOTR in % ([7]; dosage 80 g/ha) | Post-emergence action against VERPE in % [8] | Pre-emergence action against DIGSA in % ([9]; dosage 20 g/ha) | Pre-emergence action against DIGSA in % ([9]; dosage 80 g/ha) | Post-emergence action against DIGSA [10] | Post-emergence action against ALOMY in % [11] | Pre-emergence action against ALOMY (herbicidal activity) [12] | Pre-emergence action against ECHCG in % ([13]; 80 g/ha) | Post-emergence action against ECHCG in % ([14]; dosage 20 g/ha) | Pre-emergence action against MATIN in % ([17]; dosage 20 g/ha) | Pre-emergence action against MATIN in % ([17]; dosage 80 g/ha) | further results |
| --- | --- | --- | --- | --- | --- | --- | --- | --- | --- | --- | --- | --- | --- | --- | --- | --- | --- | --- | --- | --- | --- |
| Cn1nnnc1NC(=O)c1ccc(C(F)F)c(C(=O)NCC2CC2)c1Br [Example 1-228] | 90% | 90% | 90% | 100% | 100% | 90% | 100% | 100% | 90% | 100% | 90% | 100% | 100% | 90% | 90% | 90% | 100% | 80% | 80% | 100% | Post-emergence action against DIGSA in % ([10]; 5 g/ha): 90%; Pre-emergence action against ECHCG in % ([13]; 20 g/ha): 90%; Post-emergence action against PHBPU in % ([15]; dosage 5 g/ha): 80%; Post-emergence action against PHBPU in % ([15]; dosage 20 g/ha): 80%; Post-emergence action against VIOTR in % [16]: 80%; Pre-emergence action against SETVI in % ([18]; dosage 80 g/ha): 100% |
| Cn1nnnc1NC(=O)c1ccc(C(F)F)c(C(=O)NCC(F)F)c1Br [Example 1-230] | 100% | 100% | 90% | 100% | 90% | 90% | 100% | 100% | 100% | 100% | 80% | 90% | 100% | 90% | 90% | 90% | 90% | 80% | 90% | 100% | Post-emergence action against ECHCG in % ([14]; dosage 5 g/ha): 80%; Pre-emergence action against SETVI in % ([18]; dosage 20 g/ha): 90%; Pre-emergence action against SETVI in % ([18]; dosage 80 g/ha): 100% |
| CCn1nnnc1NC(=O)c1ccc(C(F)(F)F)c(C(=O)NCCSC)c1C [Example 2-35] | – | – | – | – | – | – | – | 90% | – | – | – | – | – | – | – | – | – | – | – | 80% | Pre-emergence action against POLCO in % [19]: 80% |
